# Measurements from US6548555B1, “Basic drug compositions with enhanced bioavailability” (Pfizer Inc, priority 1999, dated 2003).
# What was measured:
# [1] = HPMCAS dispersions, dissolution tests at pH 4.0; cited from earlier work
# [2] = Solubility of the Example 6 drug at pH 2 and pH 6.8; format: physicochemical; settings: thermodynamic from solid
# Protocol: A test drug is dissolved in a pH 1-2 environment, typically aqueous deionized distilled water adjusted to a target pH within the aforesaid pH 1-2 range by adding an appropriate amount of hydrochloric acid. The amount of drug added is an amount sufficient to saturate the aqueous test medium. The test medium can be agitated, typically gently, by means of a stirring bar, overhead stirrer, or the like. Typically the test medium is left to sit (while being agitated) for several hours, typically overnight. The sample can then be filtered or centrifuged as previously described, and solubility in the filtrate or supernate can then be measured by determining the concentration with any suitable means of detection appropriate to the drug. Likewise, the solubility is also determined at pH 5 to 7. If the drug's pH 1-2 solubility is 3- or more-fold its pH 5-7 solubility, then the drug will benefit from this invention.
# [3] = Dissolution test by microcentrifuge method, Example 6; format: physicochemical; settings: 37° C., 2.7 mg drug, 3.6 mg polymer or none, 1.8 mL
# Protocol: Dissolution performance was measured at 37° C. using a microcentrifuge method. For these tests, 2.7 mg drug in 0.9 mLs 25% gastric solution/75% HPLC water was added to each of 6 microcentrifuge tubes. At time 0, 0.9mLs 2×PBS without polymer was added to tubes 1 and 2, and 0.9 mLs 2×PBS containing 3.6 mg HPMCAS-MF or cellulose acetate trimellitate (CAT) was added to tubes 3 and 4, or 5 and 6. Samples were taken after 4, 10, 20, 40, 90, and 180 minutes, analyzed by HPLC, and compound concentrations were calculated. Gastric solution is 84 mM HCl, 34 mM NaCl, pH 1.2. PBS is phosphate buffered saline: 20 mM sodium phosphate, 4.7 mM potassium phosphate, 8.2 mM NaCl, 0.2 mM KCl, pH 6.5. “2×PBS” is a solution in which the components of PBS are present at 2-fold higher concentration.
SMILES,supersaturated concentration relative to crystalline MAT [1] [fold],"solubility ([2]; deionized distilled water adjusted with hydrochloric acid, pH 2, simulated gastric fluid) [µg/mL]","solubility ([2]; pH 6.8, aqueous buffer) [µg/mL]",Drug Conc ([3]; 4 min after adding 2xPBS to drug in 25% gastric solution) [µg/mL],Drug Conc ([3]; 10 min after adding 2xPBS to drug in 25% gastric solution) [µg/mL],Drug Conc ([3]; 20 min after adding 2xPBS to drug in 25% gastric solution) [µg/mL],Drug Conc ([3]; 40 min after adding 2xPBS to drug in 25% gastric solution) [µg/mL],Drug Conc ([3]; 90 min after adding 2xPBS to drug in 25% gastric solution) [µg/mL],Drug Conc ([3]; 180 min after adding 2xPBS to drug in 25% gastric solution) [µg/mL]
"CCC1OC(=O)CC(O)C(C)C(OC2OC(C)C(OC3CC(C)(O)C(OC(=O)Cc4ccc(OC)cc4)C(C)O3)C(N(C)C)C2O)C(CC=O)CC(C)C(=O)C=CC(C)=CC1COC1OC(C)C(O)C(OC)C1OC (stereo not drawn) [MAT, 4″-O-(4-methoxyphenyl)acetyltylosin]",9,,,,,,,,
"CN1CCN(c2ccccc2/C=C2\SCCN(c3ccc(Cl)c(Cl)c3)C2=O)CC1.Cl.O [Z-4-(3,4-dichlorophenyl)-2-[2-(4-methylpiperazin-1-yl)-benzylidene]-thiomorpholin-3-one hydrochloride monohydrate]",,3000,12,518,459,432,317,263,204
